{"source": "patent US10766914B2", "about": "“DNA alkylating agents” (OBI PHARMA, INC., priority 2015, dated 2020)", "key": {"[1]": {"tested_on": "H460 cells", "test": "Proliferation assay in H460 cells (2 hr exposure, AlamarBlue)", "format": "cell-based, human", "conditions": "Homo sapiens, NCI-H460, 2 hrs exposure, wash, 70 hrs growth, read-out: IC 50 in proliferation assay in H460 cells", "method": "In vitro proliferation data on the H460 […] human tumor cell line is reported above in the compound table.\nSpecifically, exponentially growing cells were seeded at a density of 4×10^3 cells per well in a 96 well plate and incubated at 37° C. in 5% CO2, 95% air and 100% relative humidity for 24 hours prior to addition of test compounds. Compounds were solubilized in 100% DMSO at 200 times the desired final test concentration. At the time of drug addition, compounds were further diluted to 4 times the desired final concentration with complete medium. Aliquots of 50 μl of compound at specified concentrations were added to microtiter wells already containing 150 μl of medium, resulting in the final drug concentration reported. After drug addition, the plates were incubated for an additional 2 hours at 37° C., 5% CO2, 95% air, and 100% relative humidity, then the drug was washed off and fresh medium was added and the plates were incubated for addition 70 hrs at 37° C., 5% CO2, 95% air and 100% relative humidity. At the end of this incubation, the viable cells were quantified using the AlamarBlue assay. The drug concentration resulting in growth inhibition of 50% (IC50) was calculated using Prism software (Irvine, Calif.), and the results were listed in the table."}, "[2]": {"tested_on": "A549 NSCLC xenograft", "test": "Example 4-D antitumor efficacy, ectopic A549 NSCLC xenograft model", "format": "in vivo, female nude mice (nu/nu)", "text": "(§1) Specific pathogen-free homozygous female nude mice (nu/nu, Charles River Laboratories) were used. Mice were given food and water ad libitum and housed in microisolator cages. Four to six week old animals were identified by microchips (Locus Technology, Manchester, Md., USA) at the time of the experiments. All animal studies were approved by the Institutional Animal Care and Use Committee at Threshold Pharmaceuticals, Inc.\n(§2) All cell lines were from the American Type Culture Collection (ATCC, Rockville, Md., USA).\n(§3) Cells were mixed with Matrigel (50% with exception for 30% in the H460) and 0.2 ml per mouse were subcutaneously implanted to the flank area of the animals. When tumor size reached 100-150 250 mm3, mice were randomized into experimental or vehicle groups with 10 mice/group and treatment was started (Day 1). The tested compounds were formulated in 5% DMSO in D5W. The regimens employed in the examples include IP, QD×5/wk (5 days on, 2 days off) as one cycle, for a total of 2 cycles; IP, once; IP, weekly for total 3 weeks; and IV, weekly for 3 weeks. Tumor growth and body weight were measured twice a week. Tumor volume was calculated as (length×width2)/2. Drug efficacy was assessed as Tumor Growth Inhibition (TGI) and Tumor Growth Delay (TGD). TGI was defined as (1−ΔT/ΔC)×100, where ΔT/ΔC presented the ratio of the change in mean (or median, if variation within the group was relatively large) tumor volume of the treated group and of the control group. TGD was calculated as the extra days for the treated tumor to reach 500 mm3 or 1000 mm3 as compared to the control group. Animals were culled when individual tumor size reached over 2000 mm3 or mean tumor volume exceeded 1000 mm3 in the group. Data are expressed as the mean±SEM. One-way analysis of variance with Dunnett post comparison test (GraphPad Prism 4) or two-tailed student's t-test were used for analysis. A P level <0.05 was considered statistically significant.\n(§4) The compounds were tested in another A549 model. The compounds were dosed as follows. Daily IP dosing: 5 doses then 2 days off then 5 more doses starting at 100 mm^3 tumors on day 1 (10 animals per group average tumor volume). The antitumor effects and the safety of administration are graphically illustrated below."}, "[3]": {"test": "Example 4-D body weight change and lethal toxicity, A549 xenograft study", "format": "in vivo, female nude mice (nu/nu)", "conditions": "for Lethal Tox: 10 animals per group", "method": "as §3, §4"}, "[4]": {"target": "T1, AKR1C3 (Homo sapiens, UniProt P42330)", "T1 sequence (P42330 1-323)": "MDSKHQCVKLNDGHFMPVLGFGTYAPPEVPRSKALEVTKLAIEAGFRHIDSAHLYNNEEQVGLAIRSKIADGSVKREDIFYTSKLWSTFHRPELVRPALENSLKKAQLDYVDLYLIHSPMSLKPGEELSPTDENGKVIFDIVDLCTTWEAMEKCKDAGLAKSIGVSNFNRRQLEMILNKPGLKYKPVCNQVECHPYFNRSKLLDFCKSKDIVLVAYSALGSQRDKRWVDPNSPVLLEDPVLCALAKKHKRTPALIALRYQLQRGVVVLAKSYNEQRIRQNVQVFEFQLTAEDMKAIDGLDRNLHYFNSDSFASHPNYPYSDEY", "test": "Activation by the aldoketo reductase AKR1C3 (% remaining, LC/MS/MS)", "format": "biochemical", "conditions": "for % Remaining: 5 μM, 25 μg/mL AKR1C3, 2 mM NADPH, 37° C.", "method": "Recombinant human AKR1C3 was diluted to 25 μg/mL in phosphate buffered saline (PBS), pH 7.4 (37° C.), containing 2 mM NADPH. TH2870 or progesterone (positive control) in 30% methanol/70% water was added to the reaction mixture at a final concentration of 5 μM and incubated at 37° C. for 120 minutes. At various times up to 120 min, 50 μL of the reaction mixture was taken and 200 μL acetonitrile containing propranolol as internal standard was added, vortex-mixed and centrifuged for 10 min. The resulting supernatant (5 μL) was injected into a LC/MS/MS for quantitation of % remaining TH2870 and progesterone. The compounds were tested in duplicate."}, "[5]": {"tested_on": "A 549 non-small cell lung xenograft", "test": "Example 4-B antitumor efficacy, ectopic A549 NSCLC xenograft model", "format": "in vivo, female nude mice (nu/nu)", "text": "as §1, §2, §3\nThe dosing was as follows. Daily IP dosing: 5 doses then 2 days off then 5 more doses starting at 110 mm^3 tumors on day 1 (10 animals per group average tumor volume).\nDoses were selected by first doing a toxicity test in CD1 mice as described above. The compounds were tested against Thio-tepa."}, "[6]": {"test": "Example 4-B body weight change, A549 xenograft study", "format": "in vivo, female nude mice (nu/nu)", "method": "as §3\nAntitumor effects of compounds provided herein were determined on A 549 non-small cell lung xenograft model in comparison with a chemotherapy agent, thiotepa. The dosing was as follows. Daily IP dosing: 5 doses then 2 days off then 5 more doses starting at 110 mm^3 tumors on day 1 (10 animals per group average tumor volume). The antitumor effects and the safety of administration are graphically illustrated below."}, "[7]": {"tested_on": "A375 melanoma human tumor xenograft", "test": "Example 4-C antitumor efficacy, ectopic A375 melanoma xenograft model", "format": "in vivo, female nude mice (nu/nu)", "conditions": "qd × 5 × 2, ip", "text": "as §1, §2, §3\nhis study employed an A375 melanoma human tumor xenograft model and various compounds provided herein were compared to thiotepa and the approved anti melanoma drug, nab-Paclitaxel."}, "[8]": {"test": "Example 4-C body weight change, A375 xenograft study", "format": "in vivo, female nude mice (nu/nu)", "conditions": "2.5 mpk, qd × 5 × 2, ip", "method": "as §3\nhis study employed an A375 melanoma human tumor xenograft model and various compounds provided herein were compared to thiotepa and the approved anti melanoma drug, nab-Paclitaxel. The antitumor effects and the safety of administration are graphically illustrated below."}, "[9]": {"conditions": "1.25 mg/kg ip QD × 5/wk × 2 wks"}}}
{"smiles": "CS(=O)(=O)c1ccc(Oc2cc(COP(=O)(N3CC3)N3CC3)ccc2[N+](=O)[O-])cc1", "note": "[Compound 2911]", "values": [{"measurement": "IC50", "setting": "[1]", "result": 8, "unit": "nM"}, {"measurement": "TGD 500", "setting": "[2]; 10 mg/kg IP QD × 5/wk × 2 wks", "result": 63, "unit": "days"}, {"measurement": "TGI", "setting": "[2]; 10 mg/kg IP QD × 5/wk × 2 wks", "result": 88.7, "unit": "%"}, {"measurement": "Max. BW loss %", "setting": "[3]; 10 mg/kg IP QD × 5/wk × 2 wks", "result": 11.1, "unit": "%"}, {"measurement": "Lethal Tox", "setting": "[3]; 10 mg/kg IP QD × 5/wk × 2 wks", "result": 0}]}
{"smiles": "CC(OP(=O)(N1CC1)N1CC1)c1ccc([N+](=O)[O-])c(Oc2ccc3ncccc3c2)c1", "note": "(stereo not shown) [Compound 2952]", "values": [{"measurement": "IC50", "setting": "[1]", "result": 3, "unit": "nM"}, {"measurement": "TGD 500", "setting": "[2]; 20 mg/kg IP QD × 5/wk × 2 wks", "result": 70, "unit": "days"}, {"measurement": "TGI", "setting": "[2]; 20 mg/kg IP QD × 5/wk × 2 wks", "result": 91.8, "unit": "%"}, {"measurement": "Max. BW loss %", "setting": "[3]; 20 mg/kg IP QD × 5/wk × 2 wks", "result": 1.2, "unit": "%"}, {"measurement": "Lethal Tox", "setting": "[3]; 20 mg/kg IP QD × 5/wk × 2 wks", "result": 1}]}
{"smiles": "CC(OP(=O)(N1CC1)N1CC1)c1ccc([N+](=O)[O-])c(Oc2ccc3ccccc3c2)c1", "note": "(stereo not shown) [Compound 2955]", "values": [{"measurement": "IC50", "setting": "[1]", "result": 6, "unit": "nM"}, {"measurement": "TGD 500", "setting": "[2]; 40 mg/kg IP QD × 5/wk × 2 wks", "result": 47, "unit": "days"}, {"measurement": "TGI", "setting": "[2]; 40 mg/kg IP QD × 5/wk × 2 wks", "result": 78.9, "unit": "%"}, {"measurement": "Max. BW loss %", "setting": "[3]; 40 mg/kg IP QD × 5/wk × 2 wks", "result": 0.6, "unit": "%"}, {"measurement": "Lethal Tox", "setting": "[3]; 40 mg/kg IP QD × 5/wk × 2 wks", "result": 1}]}
{"smiles": "O=[N+]([O-])c1ccc(COP(=O)(N2CC2)N2CC2)cc1Oc1ccc(-c2ccccc2)cc1", "note": "[Compound 2958]", "values": [{"measurement": "IC50", "setting": "[1]", "result": 2, "unit": "nM"}, {"measurement": "TGD 500", "setting": "[2]; 5 mg/kg IP QD × 5/wk × 2 wks", "result": 44, "unit": "days"}, {"measurement": "TGI", "setting": "[2]; 5 mg/kg IP QD × 5/wk × 2 wks", "result": 77.9, "unit": "%"}, {"measurement": "Max. BW loss %", "setting": "[3]; 5 mg/kg IP QD × 5/wk × 2 wks", "result": 2.1, "unit": "%"}, {"measurement": "Lethal Tox", "setting": "[3]; 5 mg/kg IP QD × 5/wk × 2 wks", "result": 0}]}
{"smiles": "CC(=O)[C@H]1CC[C@H]2[C@@H]3CCC4=CC(=O)CC[C@]4(C)[C@H]3CC[C@]12C", "note": "[Progesterone, progesterone, reference compound]", "values": [{"measurement": "% Remaining", "setting": "[4]; 0 min", "result": 100, "unit": "%"}, {"measurement": "% Remaining", "setting": "[4]; 15 min", "result": 70.8, "unit": "%"}, {"measurement": "% Remaining", "setting": "[4]; 30 min", "result": 49.2, "unit": "%"}, {"measurement": "% Remaining", "setting": "[4]; 60 min", "result": 20.1, "unit": "%"}, {"measurement": "% Remaining", "setting": "[4]; 90 min", "result": 10.6, "unit": "%"}, {"measurement": "% Remaining", "setting": "[4]; 120 min", "result": 6.40, "unit": "%"}, {"measurement": "disappearance in the presence of AKR1C3", "setting": "[4]; in words", "result": "reduced slowly"}]}
{"smiles": "S=P(N1CC1)(N1CC1)N1CC1", "note": "[Thio-TEPA, thiotepa, reference compound]", "values": [{"measurement": "TGD 500", "setting": "[5]; [9]", "result": 17, "unit": "days"}, {"measurement": "TGI", "setting": "[5]; [9]", "result": 56.1, "unit": "%"}, {"measurement": "TGD 500", "setting": "[5]; 2.5 mg/kg ip QD × 5/wk × 2 wks", "result": 26, "unit": "days"}, {"measurement": "TGI", "setting": "[5]; 2.5 mg/kg ip QD × 5/wk × 2 wks", "result": 68.3, "unit": "%"}, {"measurement": "Max. BW loss %", "setting": "[6]; [9]", "result": 0.0, "unit": "%"}, {"measurement": "Max. BW loss %", "setting": "[6]; 2.5 mg/kg ip QD × 5/wk × 2 wks", "result": 0.4, "unit": "%"}, {"measurement": "TGD 500", "setting": "[7]; 2.5 mpk", "result": 3, "unit": "days"}, {"measurement": "TGD 1000", "setting": "[7]; 2.5 mpk", "result": 2, "unit": "days"}, {"measurement": "inhibition in vivo at 2.5 mg/kg", "setting": "[7]; Mus musculus, A-375, 2.5 mpk, read-out: TGI", "result": 16.6, "unit": "%"}, {"measurement": "Max. BW loss %", "setting": "[8]", "result": 0, "unit": "%"}]}
